Some results are limits rather than exact numbers.

Type in all cases: cell-based
The target of one experiment is T1, human TLR9 (Homo sapiens, UniProt Q9NR96).
T1 construct: host or cells: HEK-Blue cells (HEK293-derived reporter line)
T1 sequence (Q9NR96 26-1032): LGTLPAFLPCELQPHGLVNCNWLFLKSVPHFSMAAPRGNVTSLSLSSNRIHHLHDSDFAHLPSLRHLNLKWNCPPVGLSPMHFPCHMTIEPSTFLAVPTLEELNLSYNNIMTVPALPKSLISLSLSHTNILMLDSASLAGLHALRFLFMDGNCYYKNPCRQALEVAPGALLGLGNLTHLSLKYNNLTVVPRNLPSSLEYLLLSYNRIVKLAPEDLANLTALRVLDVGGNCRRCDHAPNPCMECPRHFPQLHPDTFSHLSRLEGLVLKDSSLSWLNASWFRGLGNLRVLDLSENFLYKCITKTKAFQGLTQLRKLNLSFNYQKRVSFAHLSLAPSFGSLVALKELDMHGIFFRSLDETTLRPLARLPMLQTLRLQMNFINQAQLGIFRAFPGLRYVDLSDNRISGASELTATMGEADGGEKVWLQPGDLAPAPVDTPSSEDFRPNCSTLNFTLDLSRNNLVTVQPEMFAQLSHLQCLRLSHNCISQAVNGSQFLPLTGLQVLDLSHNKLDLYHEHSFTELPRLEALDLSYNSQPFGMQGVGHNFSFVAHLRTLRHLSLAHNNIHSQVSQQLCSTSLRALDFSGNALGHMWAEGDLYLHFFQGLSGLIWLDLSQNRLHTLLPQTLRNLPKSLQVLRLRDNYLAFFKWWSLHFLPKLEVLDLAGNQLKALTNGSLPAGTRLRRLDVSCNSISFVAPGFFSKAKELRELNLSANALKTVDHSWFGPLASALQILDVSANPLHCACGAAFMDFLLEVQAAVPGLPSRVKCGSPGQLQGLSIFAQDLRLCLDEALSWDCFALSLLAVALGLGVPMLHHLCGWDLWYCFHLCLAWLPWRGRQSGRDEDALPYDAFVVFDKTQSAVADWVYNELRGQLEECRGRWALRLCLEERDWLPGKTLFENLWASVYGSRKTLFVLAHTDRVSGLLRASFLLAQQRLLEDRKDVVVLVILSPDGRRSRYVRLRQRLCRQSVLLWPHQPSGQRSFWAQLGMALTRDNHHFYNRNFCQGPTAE
In words: TLR7/8/9 Inhibition Reporter Assays (TLR9). The settings on record: HEK-Blue cells overexpressing human TLR9, SEAP reporter, stimulated with TLR9 ligand ODN2006. In a few lines: (§1)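 HEK-Blue cells overexpressing human TLR7, TLR8 or TLR9 with NF-κB/AP-1-driven SEAP reporter, pre-treated 60 min with compound ([…]). Stimulated with […] (TLR7), […] (TLR8) or ODN2006 200 nM (TLR9), then 22 h at 37° C; SEAP measured, % inhibition relative to agonist-plus-DMSO and known-inhibitor wells.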

The next experiment addresses T2, human TLR7 (Homo sapiens, UniProt Q9NYK1).
T2 construct: host or cells: HEK-Blue cells (HEK293-derived reporter line)
T2 sequence (Q9NYK1 27-1049): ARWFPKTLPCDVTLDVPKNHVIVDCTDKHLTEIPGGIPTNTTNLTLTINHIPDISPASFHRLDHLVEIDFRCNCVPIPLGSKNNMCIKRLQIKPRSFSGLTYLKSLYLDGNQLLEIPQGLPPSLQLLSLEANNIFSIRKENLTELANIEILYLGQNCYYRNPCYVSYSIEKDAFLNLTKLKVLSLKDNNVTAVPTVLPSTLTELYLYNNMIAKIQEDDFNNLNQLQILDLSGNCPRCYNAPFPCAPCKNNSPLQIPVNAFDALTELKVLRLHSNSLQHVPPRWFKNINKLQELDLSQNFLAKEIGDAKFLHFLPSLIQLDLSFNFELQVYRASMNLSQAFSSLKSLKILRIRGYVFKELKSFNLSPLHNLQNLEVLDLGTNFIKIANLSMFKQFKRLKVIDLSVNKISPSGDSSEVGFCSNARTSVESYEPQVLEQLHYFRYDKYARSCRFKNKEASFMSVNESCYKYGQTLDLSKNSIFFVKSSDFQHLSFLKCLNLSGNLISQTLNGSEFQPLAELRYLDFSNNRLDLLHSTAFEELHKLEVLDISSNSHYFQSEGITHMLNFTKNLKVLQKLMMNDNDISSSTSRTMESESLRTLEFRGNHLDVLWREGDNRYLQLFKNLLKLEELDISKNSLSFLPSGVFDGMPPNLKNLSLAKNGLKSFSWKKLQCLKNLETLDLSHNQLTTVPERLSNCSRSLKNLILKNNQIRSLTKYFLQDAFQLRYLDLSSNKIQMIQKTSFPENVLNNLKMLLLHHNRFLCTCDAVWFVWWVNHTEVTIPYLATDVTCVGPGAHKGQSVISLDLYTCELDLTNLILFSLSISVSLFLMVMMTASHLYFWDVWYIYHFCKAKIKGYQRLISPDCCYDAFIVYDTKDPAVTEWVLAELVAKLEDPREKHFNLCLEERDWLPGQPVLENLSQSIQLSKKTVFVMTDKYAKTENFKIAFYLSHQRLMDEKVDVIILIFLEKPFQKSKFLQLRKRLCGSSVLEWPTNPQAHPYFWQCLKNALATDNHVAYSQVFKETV
In words: TLR7/8/9 Inhibition Reporter Assays (TLR7). The settings on record: HEK-Blue cells overexpressing human TLR7, SEAP reporter, stimulated with TLR7 ligand gardiquimod. In a few lines: as §1

The target of another experiment is T3, human TLR8 (Homo sapiens, UniProt Q9NR97).
T3 construct: host or cells: HEK-Blue cells (HEK293-derived reporter line)
T3 sequence (Q9NR97 27-1041): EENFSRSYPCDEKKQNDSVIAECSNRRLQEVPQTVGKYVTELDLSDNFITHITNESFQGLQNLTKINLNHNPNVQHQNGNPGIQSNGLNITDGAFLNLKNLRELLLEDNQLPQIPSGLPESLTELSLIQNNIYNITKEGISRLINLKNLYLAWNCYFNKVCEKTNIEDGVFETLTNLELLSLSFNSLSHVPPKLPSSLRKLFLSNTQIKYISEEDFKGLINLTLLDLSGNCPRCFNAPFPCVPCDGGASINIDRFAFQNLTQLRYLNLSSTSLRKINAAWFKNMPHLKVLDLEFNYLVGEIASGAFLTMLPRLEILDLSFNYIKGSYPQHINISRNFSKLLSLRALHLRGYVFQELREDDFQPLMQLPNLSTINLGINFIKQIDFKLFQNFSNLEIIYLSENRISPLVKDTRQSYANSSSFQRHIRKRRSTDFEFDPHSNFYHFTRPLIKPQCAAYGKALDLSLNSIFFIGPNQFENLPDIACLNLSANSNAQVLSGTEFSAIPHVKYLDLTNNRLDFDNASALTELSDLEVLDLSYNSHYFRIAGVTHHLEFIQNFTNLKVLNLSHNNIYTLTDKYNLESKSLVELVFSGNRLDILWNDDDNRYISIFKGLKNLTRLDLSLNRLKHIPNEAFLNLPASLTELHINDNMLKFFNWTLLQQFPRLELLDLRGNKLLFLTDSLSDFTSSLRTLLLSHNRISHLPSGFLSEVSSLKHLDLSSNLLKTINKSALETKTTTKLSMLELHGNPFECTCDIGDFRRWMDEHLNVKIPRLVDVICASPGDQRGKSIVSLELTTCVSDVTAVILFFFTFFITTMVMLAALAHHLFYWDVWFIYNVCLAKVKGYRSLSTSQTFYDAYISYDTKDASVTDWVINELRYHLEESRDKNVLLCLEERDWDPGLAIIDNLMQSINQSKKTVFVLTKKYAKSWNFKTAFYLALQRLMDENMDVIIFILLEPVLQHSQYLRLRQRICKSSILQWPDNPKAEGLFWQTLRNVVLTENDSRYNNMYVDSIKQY
In words: TLR7/8/9 Inhibition Reporter Assays (TLR8). The settings on record: HEK-Blue cells overexpressing human TLR8, SEAP reporter, stimulated with TLR8 ligand R848. In a few lines:
as §1

For `COCCN1CC2(CCN(c3ccc(-c4cc5c(cn4)nc(-c4ccc(S(C)(=O)=O)cc4)n5C)cc3)CC2)C1` [Example 105, 6-(4-(2-(2-methoxyethyl)-2,7-diazaspiro[3.5]nonan-7-yl)phenyl)-1-methyl-2-(4-(methylsulfonyl)phenyl)-1H-imidazo[4,5-c]pyridine], the IC50 against human TLR9 was 600 nM; at human TLR7 it was 4.5 µM; on human TLR8, 2.2 µM.

As for `Cn1c(-c2ccc(S(C)(=O)=O)cc2)nc2c(C(F)(F)F)nc(C3CCN(C4CCN(CC(C)(C)O)CC4)CC3)cc21` [Example 34, 2-methyl-1-(4-(1-methyl-2-(4-(methylsulfonyl)phenyl)-4-(trifluoromethyl)-1H-imidazo[4,5-c]pyridin-6-yl)-[1,4′-bipiperidin]-1′-yl)propan-2-ol], the 50% inhibitory concentration (IC50) is 130 nM on human TLR9, 3.5 µM against human TLR7 and over 50 µM against human TLR8.

Regarding `COc1ccc(-c2nc3c(C)nc(-c4ccc(N5CC6(CN(CC(C)C)C6)C5)cc4)cc3n2C)cc1OC` [Example 71, 2-(3,4-dimethoxyphenyl)-6-(4-(6-isobutyl-2,6-diazaspiro[3.3]heptan-2-yl)phenyl)-1,4-dimethyl-1H-imidazo[4,5-c]pyridine], the figures for the IC50 against human TLR9, against human TLR7 and against human TLR8 were 130 nM, 1 µM and 17 µM, respectively.

Take `COc1ccc(-c2nc3cnc(-c4ccc(N5CCC6(CC5)CN(C(C)C)C6)cc4)cc3n2C2CC2)cc1OC` [Example 83, 1-cyclopropyl-2-(3,4-dimethoxyphenyl)-6-(4-(2-isopropyl-2,7-diazaspiro[3.5]nonan-7-yl)phenyl)-1H-imidazo[4,5-c]pyridine]: the IC50 on human TLR9 was determined as 340 nM; against human TLR7, 1.8 µM; at human TLR8, 12 µM.

`COc1ccc(-c2nc3c(C)nc(-c4ccc(N5CC6(CN(CC(C)(C)O)C6)C5)cc4)cc3n2C)cc1OC` [Example 58, 1-(6-(4-(2-(3,4-dimethoxyphenyl)-1,4-dimethyl-1H-imidazo[4,5-c]pyridin-6-yl)phenyl)-2,6-diazaspiro[3.3]heptan-2-yl)-2-methylpropan-2-ol]: the IC50 against human TLR9 was 89 nM; on human TLR7 it was 1.3 µM; on human TLR8 it was over 50 µM.

Take `Cc1nc(-c2ccc(C3CCNCC3)cc2)cc2c1nc(-c1ccc(S(C)(=O)=O)cc1)n2C` [Example 27, 1,4-dimethyl-2-(4-(methylsulfonyl)phenyl)-6-(4-(piperidin-4-yl)phenyl)-1H-imidazo[4,5-c]pyridine]: the IC50 against human TLR9 stood at 1100 nM; on human TLR7 it was 20 µM; on human TLR8, 46 µM.

As for `Cn1c(-c2ccc(S(C)(=O)=O)cc2)nc2cnc(-c3ccc(N4CCC5(CC4)CN(C4COC4)C5)cc3)cc21` [Example 108, 1-methyl-2-(4-(methylsulfonyl)phenyl)-6-(4-(2-(oxetan-3-yl)-2,7-diazaspiro[3.5]nonan-7-yl)phenyl)-1H-imidazo[4,5-c]pyridine], the IC50 against human TLR9 was 740 nM; at human TLR7, 29 µM; at human TLR8 it was over 25 µM.

As to `Cc1nc(C2CCN(C3CCN(CC(C)C)CC3)CC2)cc2c1nc(-c1ccc(S(C)(=O)=O)cc1)n2C` [Example 39, 6-(1′-isobutyl-[1,4′-bipiperidin]-4-yl)-1,4-dimethyl-2-(4-(methylsulfonyl)phenyl)-1H-imidazo[4,5-c]pyridine], the values for the IC50 at human TLR9, against human TLR7 and against human TLR8 were 36 nM, 0.92 µM and over 50 µM, respectively.

`COc1ccc(-c2nc3c(C)nc(-c4ccc(N5C[C@H]6CN(CC(C)C)C[C@H]6C5)cc4)cc3n2C)cc1OC` [Example 65, 2-(3,4-dimethoxyphenyl)-6-(4-((3aR,6aS)-5-isobutylhexahydropyrrolo[3,4-c]pyrrol-2(1H)-yl)phenyl)-1,4-dimethyl-1H-imidazo[4,5-c]pyridine]: the values for the IC50 at human TLR9, against human TLR7 and against human TLR8 were 59 nM, 5.4 µM and over 50 µM, respectively.

`COc1ccc(-c2nc3c(C)nc(-c4ccc(N5C[C@H]6CN(CC(C)(C)O)C[C@H]6C5)cc4)cc3n2C)cc1OC` [Example 94, 1-((3aR,6aS)-5-(4-(2-(3,4-dimethoxyphenyl)-1,4-dimethyl-1H-imidazo[4,5-c]pyridin-6-yl)phenyl)hexahydropyrrolo[3,4-c]pyrrol-2(1H)-yl)-2-methylpropan-2-ol]: the IC50 at human TLR9 turned out to be 250 nM; on human TLR7 it was 2.6 µM; against human TLR8, 44 µM.
